From patent EP0811615A1, “1-Aryl-5-(substituted alkyl (thio) amido) pyrazoles and their use as pesticides” (RHONE-POULENC AGROCHIMIE, priority 1996, dated 1997)

Experiments:
[1] = tested on: buckthorn or cotton aphid; test: Buckthorn or cotton aphid foliar spray test; assay type: in vivo, Aphis nasturtii / Aphis gossypii; details: Aphis gossypii; foliar application at 100 ppm; counted after one day (buckthorn aphid) or three days (cotton aphid); read-out: pest mortality BA*/CA
Procedure: (§1) For mite, aphid, southern armyworm, Mexican bean beetle, and tobacco budworm tests, a solution or suspension was prepared by adding 10 mg of the test compound to a solution of 160 mg of dimethylformamide, 838 mg of acetone, 2 mg of a 3:1 ratio of Triton X-172 : Triton X-152 (respectively, mainly anionic and nonionic low foam emulsifiers which are each anhydrous blends of alkylaryl polyether alcohols with organic sulfonates), and […] of water. The result was a concentration of 100 ppm of the test compound.
Buckthorn or cotton aphid: Adult and nymphal stages of buckthorn or cotton aphid were reared on potted dwarf nasturtium or cotton plants, respectively. The potted plants (one pot per compound tested) infested with 100-150 aphids, were placed on a revolving turntable and sprayed with 100 ml of the 100 ppm test compound formulation by use of a DeVilbiss spray gun set at 40 psig air pressure. As an untreated control, 100 ml of a water-acetone-DMF-emulsifier solution, containing no test compound, were also sprayed on infested plants. A treated control with a commercial technical compound, malathion or cyhalothrin, formulated in the same manner, was tested as a standard. After spraying, the pots were stored for one day on buckthorn aphid or three days for cotton aphid, after which the dead aphids were counted.

Mexican bean beetle = Mexican bean beetle foliar spray test on bean plants; assay type: in vivo; details: Epilachna varivestis, 120 h; foliar application at 100 ppm; second instar larvae, held five days; read-out: pest mortality MBB
Procedure: as §1
(§2) Mexican bean beetle: Potted bean plants were placed on a revolving turntable and sprayed with 100 ml of the 100 ppm test compound formulation, sufficient to wet the plants to runoff, by use of a DeVilbiss spray gun set at 40 psig air pressure. As an untreated control, 100 ml of a water-acetone-DMF-emulsifier solution, containing no test compound, were also sprayed on plants. A treated control with a commercial technical compound, either cypermethrin or sulprofos, formulated in the same manner, was tested as a standard. When dry, the leaves were placed in plastic cups lined with moistened filter paper. Five randomly selected second instar Mexican bean beetle larvae were introduced into each cup which was closed and held for five days. Larvae which were unable to move the length of the body, even upon stimulation by prodding, were considered dead.

southern armyworm = test: Southern armyworm foliar spray test on bean plants; assay type: in vivo; details: Spodoptera eridania, 120 h; foliar application at 100 ppm; second instar larvae, held five days; read-out: pest mortality SAW
Procedure: as §1
as §2, with “Southern armyworm: Potted” for “Mexican bean beetle: Potted”, “bean plants,” for “bean plants”, “compound formulation” for “compound formulation, sufficient to wet the plants to runoff,”, “instar southern armyworm” for “instar Mexican bean beetle”

tobacco budworm = test: Tobacco budworm foliar spray test on cotton plants; assay type: in vivo; details: Heliothis virescens, 120 h; foliar application at 100 ppm; second instar larvae, held five days; read-out: pest mortality TBW
Procedure: as §1
Tobacco budworm: Potted cotton plants were placed on a revolving turntable and sprayed with 100 ml of the 100 ppm test compound formulation by use of a DeVilbiss spray gun set at 40 psig air pressure. As an untreated control, 100 ml of a water-acetone-DMF-emulsifier solution, containing no test compound, were also sprayed on plants. A treated control with a commercial technical compound, either cypermethrin or sulprofos, formulated in the same manner, was tested as a standard. When dry, the leaves were placed in plastic dishes containing a piece of filter paper and a moistened dental wick. One randomly selected second instar tobacco budworm larva was then introduced into each cup which was closed and held for five days. Larvae unable to move the length of their body, even upon stimulation by prodding, were considered dead.

housefly = test: House fly bait test; assay type: in vivo; details: Musca domestica; bait application at 100 ppm; adult flies, after 24 hours; read-out: pest mortality HF
From the text: For housefly tests, the formulation was initially prepared in a similar manner to the above, but in 16.3 g of water with corresponding adjustment of other components, providing a 200 ppm concentration. Final dilution with an equal volume of a 20% by weight aqueous solution of sucrose provided a 100 ppm concentration of the test compound. When necessary, sonication was provided to insure complete dispersion.
House fly: Four to six day old adult house flies were reared according to the specifications of the Chemical Specialties Manufacturing Association (Blue Book, McNair-Dorland Co., N.Y. 1954; pages 243-244, 261) under controlled conditions. The flies were immobilized by anesthetizing with carbon dioxide and twenty five immobilized individuals, males and females, were transferred to a cage consisting of a standard food strainer and a wrapping-paper-covered surface. Ten ml of the 100 ppm test compound formulation were added to a soufflé cup containing an absorbent cotton pad. As an untreated control, 10 ml of a water-acetone-DMF-emulsifier-sucrose solution, containing no test compound, were applied in a similar manner. A treated control with a commercial technical compound, malathion, formulated in the same manner, was tested as a standard. The bait cup was introduced inside the food strainer prior to admitting the anesthetized flies.

[2] = tested on: southern root-knot nematode; test: Southern root-knot nematode soil test on tomato; assay type: in vivo; parameters: dose or concentration left out as unconfirmed; details: Meloidogyne incognita; Soil Conc. at 21 Kg/ha; second stage juveniles; read-out: pest mortality Nema (J2)
Procedure: For southern root-knot nematode and systemic tests for southern armyworm, cotton aphid, tobacco budworm and greenbug, a stock solution or suspension was prepared by adding 15 mg of the test compound to 250 mg of dimethylformamide, 1250 mg of acetone and 3 mg of the emulsifier blend referenced above. Water was then added to provide a test compound concentration of 150 ppm. When necessary, sonication was provided to insure complete dispersion.
Southern root-knot nematode: Infected roots of tomato plants, containing egg masses of southern root-knot nematode, were removed from a stock culture and cleaned of soil by shaking and washing with tap water. The nematode eggs were separated from the root tissue and rinsed with water. Samples of the egg suspension were placed on a fine screen over a receiving bowl, in which the water level was adjusted to be in contact with the screen. From the bowl, juveniles were collected on a fine screen. The bottom of a cone-shaped container was plugged with coarse vermiculite and then filled to within 1.5 cm of the top with about a 200 ml volume of pasteurized soil. Then into a hole made in the center of the soil in the cone was pipetted an aliquot of the 150 ppm test compound formulation. A treated control with a commercial technical compound, fenamifos, formulated in a similar manner, was tested as a standard. As an untreated control, an aliquot of a water-acetone-DMF-emulsifier solution, containing no test compound, was applied in a similar manner. Immediately after treatment of the soil with the test compound there were added to the top of each cone 1000 second stage juvenile southern root-knot nematodes. After 3 days, a single healthy tomato seedling was then transplanted into the cone. The cone, containing the infested soil and tomato seedling, was kept in the greenhouse for 3 weeks. At the termination of the test, […], […]

CCOCC(=O)Nc1c(SC(F)(F)F)c(C#N)nn1-c1c(Cl)cc(C(F)(F)F)cc1Cl [Compound 2]
70 to 100%: mortality at 100 ppm [1] | mortality at 100 ppm (Mexican bean beetle) | mortality at 100 ppm (southern armyworm) | mortality at 100 ppm (tobacco budworm) | mortality at 100 ppm (housefly)

COCC(=O)Nc1c([S+]([O-])C(F)(F)F)c(C#N)nn1-c1c(Cl)cc(C(F)(F)F)cc1Cl (stereo not shown) [Compound 7]
70 to 100%: mortality at 100 ppm (Mexican bean beetle) | mortality at 100 ppm (southern armyworm) | mortality at 100 ppm (tobacco budworm) | mortality at 100 ppm (housefly) | mortality [2]

CCOCC(=O)Nc1c([S+]([O-])C(F)(F)F)c(C#N)nn1-c1c(Cl)cc(C(F)(F)F)cc1Cl (stereo not shown) [Compound 8]
70 to 100%: mortality at 100 ppm (Mexican bean beetle) | mortality at 100 ppm (southern armyworm) | mortality at 100 ppm (tobacco budworm) | mortality at 100 ppm (housefly) | mortality [2]

COCCOCC(=O)Nc1c([S+]([O-])C(F)(F)F)c(C#N)nn1-c1c(Cl)cc(C(F)(F)F)cc1Cl (stereo not shown) [Compound 9]
70 to 100%: mortality at 100 ppm (Mexican bean beetle) | mortality at 100 ppm (southern armyworm) | mortality at 100 ppm (tobacco budworm) | mortality at 100 ppm (housefly) | mortality [2]

COCC(=O)Nc1c(S(=O)(=O)C(F)(F)F)c(C#N)nn1-c1c(Cl)cc(C(F)(F)F)cc1Cl [Compound 11]
70 to 100%: mortality at 100 ppm (Mexican bean beetle) | mortality at 100 ppm (southern armyworm) | mortality at 100 ppm (housefly) | mortality [2]

CCOCC(=O)Nc1c(S(=O)(=O)C(F)(F)F)c(C#N)nn1-c1c(Cl)cc(C(F)(F)F)cc1Cl [Compound 12]
70 to 100%: mortality at 100 ppm (southern armyworm) | mortality at 100 ppm (tobacco budworm) | mortality at 100 ppm (housefly) | mortality [2]

COCCOCC(=O)Nc1c(S(=O)(=O)C(F)(F)F)c(C#N)nn1-c1c(Cl)cc(C(F)(F)F)cc1Cl [Compound 13]
70 to 100%: mortality at 100 ppm [1] | mortality at 100 ppm (southern armyworm) | mortality [2]

COCC(=O)Nc1c([S+]([O-])C(F)(Cl)Cl)c(C#N)nn1-c1c(Cl)cc(C(F)(F)F)cc1Cl (stereo not shown) [Compound 17]
70 to 100%: mortality at 100 ppm (southern armyworm) | mortality at 100 ppm (tobacco budworm) | mortality at 100 ppm (housefly) | mortality [2]

CCOCC(=O)Nc1c([S+]([O-])C(F)(Cl)Cl)c(C#N)nn1-c1c(Cl)cc(C(F)(F)F)cc1Cl (stereo not shown) [Compound 18]
70 to 100%: mortality at 100 ppm (Mexican bean beetle) | mortality at 100 ppm (southern armyworm) | mortality at 100 ppm (tobacco budworm) | mortality [2]

COC(C(=O)Nc1c(SC(F)(F)F)c(C#N)nn1-c1c(Cl)cc(C(F)(F)F)cc1Cl)c1ccccc1 (stereo not shown) [Compound 22]
70 to 100%: mortality at 100 ppm [1] | mortality at 100 ppm (southern armyworm) | mortality at 100 ppm (tobacco budworm) | mortality at 100 ppm (housefly)

COC(C)C(=O)Nc1c(S(=O)(=O)C(F)(F)F)c(C#N)nn1-c1c(Cl)cc(C(F)(F)F)cc1Cl (stereo not shown) [Compound 25]
70 to 100%: mortality at 100 ppm [1] | mortality at 100 ppm (Mexican bean beetle) | mortality at 100 ppm (southern armyworm) | mortality at 100 ppm (housefly) | mortality [2]

COC(C)C(=O)Nc1c([S+]([O-])C(F)(Cl)Cl)c(C#N)nn1-c1c(Cl)cc(C(F)(F)F)cc1Cl (stereo not shown) [Compound 28]
70 to 100%: mortality at 100 ppm (Mexican bean beetle) | mortality at 100 ppm (southern armyworm) | mortality at 100 ppm (tobacco budworm) | mortality at 100 ppm (housefly) | mortality [2]

N#Cc1nn(-c2c(Cl)cc(C(F)(F)F)cc2Cl)c(NC(=O)CO)c1SC(F)(F)F [Compound 32]
70 to 100%: mortality at 100 ppm (southern armyworm) | mortality at 100 ppm (housefly) | mortality [2]

CCCCCCCOCC(=O)Nc1c(SC(F)(F)F)c(C#N)nn1-c1c(Cl)cc(C(F)(F)F)cc1Cl [Compound 34]
70 to 100%: mortality at 100 ppm (southern armyworm) | mortality at 100 ppm (housefly) | mortality [2]

CCOC(C)C(=O)Nc1c(SC(F)(F)F)c(C#N)nn1-c1c(Cl)cc(C(F)(F)F)cc1Cl (stereo not shown) [Compound 39]
70 to 100%: mortality at 100 ppm (Mexican bean beetle) | mortality at 100 ppm (southern armyworm) | mortality at 100 ppm (housefly) | mortality [2]

CCCCOC(C)C(=O)Nc1c(SC(F)(F)F)c(C#N)nn1-c1c(Cl)cc(C(F)(F)F)cc1Cl (stereo not shown) [Compound 42]
70 to 100%: mortality at 100 ppm (southern armyworm) | mortality at 100 ppm (housefly) | mortality [2]

COCC(=O)Nc1c(S(=O)(=O)C(F)(F)F)c(C#N)nn1-c1ncc(C(F)(F)F)cc1Cl [Compound 50]
70 to 100%: mortality at 100 ppm [1] | mortality at 100 ppm (southern armyworm) | mortality at 100 ppm (housefly) | mortality [2]
